Results taken from ChEMBL document CHEMBL3352001, “2,4-Dialkyl-8,9,10,11-tetrahydrobenzo[g]pyrimido[4,5-c]isoquinoline-1,3,7,12(2H,4H)-tetraones as new leads against Mycobacterium tuberculosis” (Eur J Med Chem, 2014).
≈ marks a conversion by molar mass, not a printed value.

Legend:
[1] = Cytotoxicity against mouse J774A1 cells after 24 hrs by neutral red dye uptake assay; type: cell-based; conditions: J774.A1, 24 h, read-out: I50
[2] = Selectivity index, ratio of I50 for mouse J774A1 cells to GI50 for Mycobacterium tuberculosis H37Rv; type: toxicity, cell-based, J774.A1; conditions: read-out: Selectivity Index
[3] = system: Mycobacterium tuberculosis; assay: Antimycobacterial activity against Mycobacterium tuberculosis H37Rv infected in mouse J774A1 cells assessed as reduction in bacterial load inside the cell at 3.13 ug/mL treatment stated after 24 hrs of infection for 4 days by luminometry; type: functional, J774.A1; design: scale not given: the % may be the effect or the level left
[4] = system: Mycobacterium tuberculosis; assay: Antimycobacterial activity against Mycobacterium tuberculosis H37Rv infected in mouse J774A1 cells assessed as reduction in bacterial load inside the cell at 6.25 ug/mL treatment stated after 24 hrs of infection for 4 days by luminometry; type: functional, J774.A1; design: scale not given: the % may be the effect or the level left
Salmonella typhimurium [5] = assay: Genotoxicity in Salmonella typhimurium T104 Genox (recN2-4) expressing lux operon assessed as S/N ratio at 0.1 to 10 ug/mL measured for 4 hrs with 5 mins interval by vitotox assay in presence of S9 fraction; type: toxicity, organism-based; conditions: salmonella enterica subsp. enterica serovar typhimurium, s9, 4 h
Salmonella typhimurium [6] = assay: Genotoxicity in Salmonella typhimurium T104 Genox (recN2-4) expressing lux operon assessed as S/N ratio at 0.1 to 10 ug/mL measured for 4 hrs with 5 mins interval by vitotox assay; type: toxicity, organism-based; conditions: salmonella enterica subsp. enterica serovar typhimurium
Salmonella typhimurium [7] = assay: Genotoxicity in Salmonella typhimurium Cytox (pr1) expressing lux operon assessed as S/N ratio at 0.1 to 10 ug/mL measured for 4 hrs with 5 mins interval by vitotox assay in presence of S9 fraction; type: toxicity, organism-based; conditions: salmonella enterica subsp. enterica serovar typhimurium, s9, 4 h
Salmonella typhimurium [8] = assay: Genotoxicity in Salmonella typhimurium Cytox (pr1) expressing lux operon assessed as S/N ratio at 0.1 to 10 ug/mL measured for 4 hrs with 5 mins interval by vitotox assay; type: toxicity, organism-based; conditions: salmonella enterica subsp. enterica serovar typhimurium
[9] = Cytotoxicity against mouse J774A1 cells assessed as structural organization of DNA at 0.5 to 5 ug/mL after 24 hrs by Comet assay; type: cell-based; conditions: j774.a1, 24 h
[10] = system: Mycobacterium tuberculosis; assay: Antimycobacterial activity against Mycobacterium tuberculosis H37Rv infected in mouse J774A1 cells assessed as reduction in extracellular bacterial load at 3.13 ug/mL treatment stated after 24 hrs of infection for 4 days by luminometry; type: functional, J774.A1
[11] = system: Mycobacterium tuberculosis; assay: Antimycobacterial activity against Mycobacterium tuberculosis H37Rv infected in mouse J774A1 cells assessed as reduction in bacillary replication at 3.13 ug/mL treatment stated after 24 hrs of infection for 4 days by luminometry; type: functional, J774.A1
[12] = system: Mycobacterium tuberculosis; assay: Antimycobacterial activity against Mycobacterium tuberculosis H37Rv infected in mouse J774A1 cells assessed as reduction in bacillary replication at 6.25 ug/mL treatment stated after 24 hrs of infection for 4 days by luminometry; type: functional, J774.A1
[13] = system: Mycobacterium tuberculosis; assay: Antimycobacterial activity against Mycobacterium tuberculosis H37Rv infected in mouse J774A1 cells assessed as reduction in bacillary replication at 12.5 ug/mL treatment stated after 24 hrs of infection for 4 days by luminometry; type: functional, J774.A1

Compound	IC50 [1] [µg/mL]	selectivity ratio [2]	also measured
CC(C)CCn1c(=O)c2c3c(cnc2n(CCC(C)C)c1=O)C(=O)C1=C(C3=O)C2CCC1CC2	23.4 (≈ 50.4 µM)	4.77	–
CC(C)Cn1c(=O)c2c3c(cnc2n(CC(C)C)c1=O)C(=O)C1=C(C3=O)C2CCC1C2 (stereo not given)	16.8 (≈ 39.8 µM)	8.06	–
Cn1c(=O)c2c3c(cnc2n(C)c1=O)C(=O)C1=C(C3=O)C2CCC1C2 (stereo not given)	15.4 (≈ 45.5 µM)	9.72	–
CCCCn1c(=O)c2c3c(cnc2n(CCCC)c1=O)C(=O)C1=C(C3=O)C2CCC1CC2	9.87 (≈ 22.7 µM)	5.36	–
CC(C)CCn1c(=O)c2c3c(cnc2n(CCC(C)C)c1=O)C(=O)C1=C(C3=O)C2CCC1C2 (stereo not given)	22.5 (≈ 50 µM)	9.32	–
CCn1c(=O)c2c3c(cnc2n(CC)c1=O)C(=O)C1=C(C3=O)C2CCC1CC2	19.9 (≈ 52.4 µM)	7.79	–
CC(C)n1c(=O)c2c3c(cnc2n(C(C)C)c1=O)C(=O)C1=C(C3=O)C2CCC1C2 (stereo not given)	9.71 (≈ 24.7 µM)	10.8	Activity [3]: 57.72%; Activity [4]: 98.03%; Ratio (Salmonella typhimurium [5]): 0.8; Ratio (Salmonella typhimurium [6]): 0.8; Ratio (Salmonella typhimurium [7]): < 1.5; Ratio (Salmonella typhimurium [8]): < 1.5; Activity [9]: Non-toxic; inhibition (INH) [10]: 99%
CCCn1c(=O)c2c3c(cnc2n(CCC)c1=O)C(=O)C1=C(C3=O)C2CCC1CC2	22 (≈ 54 µM)	8.5	–
CC(C)n1c(=O)c2c3c(cnc2n(C(C)C)c1=O)C(=O)C1=C(C3=O)C2CCC1CC2	11.8 (≈ 28.9 µM)	16.1	inhibition (INH) [11]: 58.7%; inhibition (INH) [12]: 82.3%; Ratio (Salmonella typhimurium [5]): 0.8; Ratio (Salmonella typhimurium [6]): 0.8; Ratio (Salmonella typhimurium [7]): < 1.5; Ratio (Salmonella typhimurium [8]): < 1.5; Activity [9]: Non-toxic
CCCCCn1c(=O)c2c3c(cnc2n(CCCCC)c1=O)C(=O)C1=C(C3=O)C2CCC1CC2	16.4 (≈ 35.3 µM)	11	–
CCCCCn1c(=O)c2c3c(cnc2n(CCCCC)c1=O)C(=O)C1=C(C3=O)C2CCC1C2 (stereo not given)	13.4 (≈ 29.7 µM)	10.6	–
CCCCCCCn1c(=O)c2c3c(cnc2n(CCCCCCC)c1=O)C(=O)C1=C(C3=O)C2CCC1C2 (stereo not given)	26.5 (≈ 52.3 µM)	42	inhibition (INH) [11]: 65.5%; inhibition (INH) [12]: 80.4%; inhibition (INH) [13]: 91.3%; Ratio (Salmonella typhimurium [5]): 0.8; Ratio (Salmonella typhimurium [6]): 0.8; Ratio (Salmonella typhimurium [7]): < 1.5; Ratio (Salmonella typhimurium [8]): < 1.5; Activity [9]: Non-toxic
CCCCCCn1c(=O)c2c3c(cnc2n(CCCCCC)c1=O)C(=O)C1=C(C3=O)C2CCC1C2 (stereo not given)	12.1 (≈ 25.3 µM)	9.9	–
CCCCn1c(=O)c2c3c(cnc2n(CCCC)c1=O)C(=O)C1=C(C3=O)C2CCC1C2 (stereo not given)	9.5 (≈ 22.5 µM)	6.51	–
CC(C)Cn1c(=O)c2c3c(cnc2n(CC(C)C)c1=O)C(=O)C1=C(C3=O)C2CCC1CC2	20.4 (≈ 46.9 µM)	4.69	–
Cn1c(=O)c2c3c(cnc2n(C)c1=O)C(=O)C1=C(C3=O)C2CCC1CC2	16.8 (≈ 47.8 µM)	5.94	–
CCCCCCn1c(=O)c2c3c(cnc2n(CCCCCC)c1=O)C(=O)C1=C(C3=O)C2CCC1CC2	13.7 (≈ 27.9 µM)	10.1	–
CCCCCCCn1c(=O)c2c3c(cnc2n(CCCCCCC)c1=O)C(=O)C1=C(C3=O)C2CCC1CC2	32.8 (≈ 63.1 µM)	24.8	inhibition (INH) [12]: 68.8%; inhibition (INH) [13]: 92%; Ratio (Salmonella typhimurium [5]): 0.8; Ratio (Salmonella typhimurium [6]): 0.8; Ratio (Salmonella typhimurium [7]): < 1.5; Ratio (Salmonella typhimurium [8]): < 1.5; Activity [9]: Non-toxic
CCCn1c(=O)c2c3c(cnc2n(CCC)c1=O)C(=O)C1=C(C3=O)C2CCC1C2 (stereo not given)	18.7 (≈ 47.5 µM)	18.7	–
CCn1c(=O)c2c3c(cnc2n(CC)c1=O)C(=O)C1=C(C3=O)C2CCC1C2 (stereo not given)	18.2 (≈ 49.9 µM)	10.8	–
